# Assays:
# [1] = test system: PIP3 production in A549 cells; test: TIRF microscopy of PIP3 reporter in A549 cells; type: cell-based, human
# Source text: Class I PI3Ks convert the PtdIns(4,5)P2 lipid in the plasma membrane to PtdIns(3,4,5)P3 (or PIP3) which is converted to PtdIns(3,4)P2 by the action of 5-phosphatases. The inventors therefore tested whether stimulation of cells with 1938 led to the generation of PIP3 and PI(3,4)P2 using live imaging in cells expressing fluorescent biosensors that selectively bind these lipids. […] This PIP3 peak was followed by the generation of membrane-associated PI(3,4)P2 (FIG. 3aiii), with a timing in line with the known mechanism of cellular generation of PI(3,4)P2 from PIP3 by the action of 5-phosphatases. Similar kinetics of PIP3 and PI(3,4)P2 production have previously been reported in HeLa cells stimulated with insulin. […]
# Image analyses of total reporter intensities were performed with the Fiji open source image analysis package. The region of interest (ROI) corresponding to the footprint of the individual cell across time points were defined using minimal intensity projection to select only pixels present across all time points, following prior subtraction of camera noise (rolling ball method, radius=500 pixels) and xy drift correction, intensity levels over time were measured. […] All other quantifications were performed using the open source software R/RStudio. […]
# isolated rat hearts = test: Langendorff ex vivo perfused rat heart model of IRI; conditions: 5 μM
structure (smiles),measurement,setting,value
CCN1CCN(c2ccc(Nc3cc(Nc4cccc5c4N(C(C)=O)CC5)ccn3)cc2)CC1 [Example 1938],PIP3 signal in PIK3CA-null A549 cells,[1]; PIK3CA-null A549 cells,did not increase
same,time to plasma membrane-associated PIP3 production,[1]; serum-starved A549 cells,less than 3 min
same,pAKT S473 in perfused rat hearts,isolated rat hearts,increase in generation of pAKTS473
same,tissue protection from IRI,isolated rat hearts; administration during first 15 min of reperfusion,substantial tissue protection from IRI

# — patent US20250263404A1, “AMINOPYRIDINES AS ACTIVATORS OF PI3 KINASE” (UCL Business Ltd, priority 2021, published 2025)
